Measurements published in patent US10738028B2, “Spiro three-membered ring, spiro five-membered ring peptide deformylase inhibitor and use thereof in antibacteria and anti-tumor” (priority 2016, dated 2020).
Read-outs that look alike come from different tables or passages of the source.

Legend:
Format in all cases: cell-based
[1] = test system: Enterococcus faecalis (EFA); assay: MIC, two-fold agar dilution (CLSI), clinical isolates
How it was run: (§1)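 Test samples were assayed by the CLSI-recommended two-fold agar dilution method, and the minimum inhibitory concentration against each tested strain was determined.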

[2] = test system: Enterococcus faecium (EFM); assay: as above
How it was run: as §1

[3] = test system: Escherichia coli (including ESBLs, non-ESBLs); assay: as above
How it was run: as §1

[4] = test system: Moraxella catarrhalis (BCA); assay: as above
How it was run: as §1

[5] = test system: methicillin-resistant Staphylococcus aureus (MRSA); assay: as above
How it was run: as §1

[6] = test system: methicillin-resistant Staphylococcus epidermidis (MRSE); assay: as above
How it was run: as §1

[7] = test system: methicillin-sensitive Staphylococcus aureus (MSSA); assay: as above
How it was run: as §1

[8] = test system: methicillin-sensitive Staphylococcus epidermidis (MSSE); assay: as above
How it was run: as §1

[9] = test system: HCT-116 colorectal cancer cell line; assay: CCK-8 proliferation inhibition; conditions: Homo sapiens, HCT-116, 72 h, concentration of 30 μM, 72 hours, CCK-8
How it was run: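 2000 cells/well, McCoy's 5A + 10% newborn bovine serum; overnight attach, 37° C./5% CO2. Cpd from DMSO stock diluted in medium, 72 h. Readout: CCK-8 (1:10). Ctrl 1‰ DMSO.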

[10] = test system: A549 lung cancer cell line; assay: CCK-8 proliferation inhibition; conditions: Homo sapiens, A549, 72 h, concentration of 30 μM
Source text: (§2) 2. The present invention adopts the CCK-8 method to determine the proliferation inhibition effect of the spiro three-membered ring, spiro five-membered ring peptide deformylase inhibitor as described in Examples 1-80 against colorectal cancer cells, lung cancer cells, gastric cancer cells, liver cancer cells, and the like. […] The compound having the best activity synthesized in Example 64 was further tested for its inhibitory activity against other tumor cells including T cell leukemia, acute myeloid leukemia, cervical cancer, breast cancer, prostate cancer and osteosarcoma, and the like (see Table 7).
(§3) (1) HCT-116 colorectal cancer cell line, A549 lung cancer cell line, MGC-803 gastric cancer cell line, BEL-7402 liver cancer cell line, Jurkat T cell leukemia cell line, HL60 acute myeloid leukemia cell line, Hela cervical cancer cell line, MCF-7 breast cancer cell line, PC3 prostate cancer cell line and SAOS-2 osteosarcoma cell line were made into single cell suspension, 180 μL of which was inoculated into 96-well culture plate, which was cultured overnight in CO2 incubator (37° C., 5% CO2, 95% air).
(§4) (2) Each of the spiro three-membered ring, spiro five membered ring peptide deformylase inhibitors was dissolved in DMSO, and was further formulated into drug solution with required different final concentration using corresponding cell culture medium. The drug solutions were added to the above cells respectively (20 μL/well), with the control group added with 1‰ DMSO, and cultured in a CO2 incubator for 72 hours.
(§5) (3) After incubation for 72 hours, the culture solution was decanted, and 100 μL of 1:10 diluted CCK-8 solution was added.
(§6) Wherein, in step (1), the concentration of the single cell suspension was 2000 cells/well.
(§7) Wherein, in step (2), HCT-116 cells were cultured in McCoy's 5A medium (containing 10% newborn bovine serum, 1% double antibody); A549 and PC3 cells were cultured in F12 medium (containing 10% newborn bovine serum, 1% double antibody); MGC-803, BEL-7402, SAOS-2, Jurkat and HL60 cells were cultured in 1640 medium (containing 10% newborn bovine serum, 1% double antibody); and MCF-7 and Hela cells were cultured in DMEM high glucose medium (containing 10% newborn bovine serum, 1% double antibody).

[11] = test system: BEL-7402 liver cancer cell line; assay: CCK-8 proliferation inhibition; conditions: concentration of 30 μM
Source text: as §2, §3, §4, §5, §6, §7

[12] = test system: MGC-803 gastric cancer cell line; assay: CCK-8 proliferation inhibition; conditions: Homo sapiens, MGC-803, 72 h, concentration of 30 μM
Source text: as §2, §3, §4, §5, §6, §7

## CCCC[C@H](CC(=O)NO)C(=O)N1CC2(CCCC2)C[C@H]1C(=O)Nc1cnccn1 [Example 77]
[1]; strain EFA 15-1
  Anti-bacterial activity (MIC): 32 µg/mL
[1]; strain EFA 15-2
  Anti-bacterial activity (MIC): 32 µg/mL
[1]; strain EFA 15-3
  Anti-bacterial activity (MIC): 32 µg/mL
[1]; strain EFA 15-4
  Anti-bacterial activity (MIC): 32 µg/mL
[1]; strain EFA 15-5
  Anti-bacterial activity (MIC): 32 µg/mL
[1]; strain EFA 15-6
  Anti-bacterial activity (MIC): 32 µg/mL
[1]; strain EFA 15-9
  Anti-bacterial activity (MIC): 16 µg/mL
[2]; strain EFM 15-1
  Anti-bacterial activity (MIC): 32 µg/mL
[2]; strain EFM 15-2
  Anti-bacterial activity (MIC): 32 µg/mL
[2]; strain EFM 15-3
  Anti-bacterial activity (MIC): 32 µg/mL
[2]; strain EFM 15-4
  Anti-bacterial activity (MIC): 2 µg/mL
[2]; strain EFM 15-5
  Anti-bacterial activity (MIC): 2 µg/mL
[2]; strain EFM 15-6
  Anti-bacterial activity (MIC): 2 µg/mL
[3]; clinical isolate ECO+ 15-1
  Anti-bacterial activity (MIC), strain ECO+ 15-1: 0.125 µg/mL
[3]; clinical isolate ECO+ 15-2
  Anti-bacterial activity (MIC), strain ECO+ 15-2: > 32 µg/mL
[3]; clinical isolate ECO+ 15-3
  Anti-bacterial activity (MIC), strain ECO+ 15-3: > 32 µg/mL
[3]; clinical isolate ECO+ 15-4
  Anti-bacterial activity (MIC), strain ECO+ 15-4: > 32 µg/mL
[3]; clinical isolate ECO− 15-1
  Anti-bacterial activity (MIC), strain ECO− 15-1: > 32 µg/mL
[3]; clinical isolate ECO− 15-2
  Anti-bacterial activity (MIC), strain ECO− 15-2: > 32 µg/mL
[3]; clinical isolate ECO− 15-3
  Anti-bacterial activity (MIC), strain ECO− 15-3: > 32 µg/mL
[3]; clinical isolate ECO− 15-4
  Anti-bacterial activity (MIC), strain ECO− 15-4: > 32 µg/mL
[4]; strain BCA 14-1
  Anti-bacterial activity (MIC): 1 µg/mL
[4]; strain BCA 14-4
  Anti-bacterial activity (MIC): 2 µg/mL
[4]; strain BCA 14-5
  Anti-bacterial activity (MIC): 0.125 µg/mL
[4]; strain BCA 14-6
  Anti-bacterial activity (MIC): 0.5 µg/mL
[4]; strain BCA 14-7
  Anti-bacterial activity (MIC): 0.5 µg/mL
[4]; strain BCA 14-8
  Anti-bacterial activity (MIC): 0.5 µg/mL
[4]; strain BCA 14-10
  Anti-bacterial activity (MIC): 0.25 µg/mL
[5]; clinical isolate MRSA 15-1
  Anti-bacterial activity (MIC), strain MRSA 15-1: 0.25 µg/mL
[5]; clinical isolate MRSA 15-2
  Anti-bacterial activity (MIC), strain MRSA 15-2: 0.5 µg/mL
[5]; clinical isolate MRSA 15-3
  Anti-bacterial activity (MIC), strain MRSA 15-3: 0.25 µg/mL
[5]; clinical isolate MRSA 15-4
  Anti-bacterial activity (MIC), strain MRSA 15-4: 0.5 µg/mL
[6]; clinical isolate MRSE 15-1
  Anti-bacterial activity (MIC), strain MRSE 15-1: 0.5 µg/mL
[6]; clinical isolate MRSE 15-2
  Anti-bacterial activity (MIC), strain MRSE 15-2: 2 µg/mL
[6]; clinical isolate MRSE 15-3
  Anti-bacterial activity (MIC), strain MRSE 15-3: 2 µg/mL
[6]; clinical isolate MRSE 15-7
  Anti-bacterial activity (MIC), strain MRSE 15-7: 2 µg/mL
[7]; clinical isolate MSSA 15-3
  Anti-bacterial activity (MIC), strain MSSA 15-3: 0.5 µg/mL
[7]; clinical isolate MSSA 15-4
  Anti-bacterial activity (MIC), strain MSSA 15-4: 0.125 µg/mL
[7]; clinical isolate MSSA 15-5
  Anti-bacterial activity (MIC), strain MSSA 15-5: 0.125 µg/mL
[7]; clinical isolate MSSA 15-6
  Anti-bacterial activity (MIC), strain MSSA 15-6: > 32 µg/mL
[8]; clinical isolate MSSE 15-3
  Anti-bacterial activity (MIC), strain MSSE 15-3: 0.5 µg/mL
[8]; clinical isolate MSSE 15-4
  Anti-bacterial activity (MIC), strain MSSE 15-4: 2 µg/mL
[8]; clinical isolate MSSE 15-5
  Anti-bacterial activity (MIC), strain MSSE 15-5: 2 µg/mL
[8]; clinical isolate MSSE 15-6
  Anti-bacterial activity (MIC), strain MSSE 15-6: 0.125 µg/mL
[9]; Table 5, read-out: Inhibition of proliferation, Colorectal cancer HCT116
  inhibition at 30 µM: ≥ 30%
[9]; read-out: HCT116 inhibition rate/%
  inhibition at 30 µM: 30%
[10]
  inhibition at 30 µM: 16%
[11]; Homo sapiens, Bel-7402, 72 h
  inhibition at 30 µM: > 50%
[11]; 72 hours, 30 µM
  Inhibition of proliferation, Liver cancer BEL-7402: 49%
[12]
  inhibition at 30 µM: 19%
